Test results published in ChEMBL document CHEMBL1128051, “Radioprotective effects of -galactosylceramides” (1995).
Values joined by “and” are separate entries in the source; they are usually repeats but may differ in a detail not shown here. Identical values can stand only once.

Tests used:
Assay type in all cases: functional
Mus musculus [1] = test: Evaluation of Radioprotective effect of the intravenously administered compound (0.1 mg/kg on day 0,4,8) after irradiation on mice with 9 Gy of X-ray on day 25
Mus musculus [2] = test: Evaluation of Radioprotective effect of the intravenously administered compound (0.1 mg/kg on day 0,4,8) after irradiation on mice with 9 Gy of X-ray on day 15
Mus musculus [3] = test: Evaluation of Radioprotective effect of the intravenously administered compound (0.1 mg/kg on day 0,4,8) after irradiation on mice with 9 Gy of X-ray on day 10
Mus musculus [4] = test: Evaluation of Radioprotective effect of the intravenously administered compound (0.1 mg/kg on day 0,4,8) after irradiation on mice with 9 Gy of X-ray on day 35
Mus musculus [5] = test: Evaluation of Radioprotective effect of the intravenously administered compound (0.1 mg/kg on day 0,4,8) after irradiation on mice with 9 Gy of X-ray on day 20

| SMILES | Survival (Mus musculus [1]) [%] | Survival (Mus musculus [2]) | Survival (Mus musculus [3]) [%] | Survival (Mus musculus [4]) | Survival (Mus musculus [5]) [%] |
| --- | --- | --- | --- | --- | --- |
| CCCCCCCCCCCCCCCCCCCCCC[C@@H](O)C(=O)N[C@@H](CO[C@H]1O[C@@H](CO)[C@H](O)[C@H](O)[C@@H]1O)[C@H](O)[C@H](O)CCCCCCCCCCCCCC | 80 | 100% | 100 | 90% and 80% | 80 |
| CCCCCCCCCCCCCCCCCCCCCCCC(=O)N[C@@H](CO[C@H]1O[C@@H](CO)[C@H](O)[C@H](O)[C@@H]1O)C(O)[C@H](O)CCCCCCCCCCCCCC (single isomer, unassigned) | 90 | 100% and 90% | 100 | 90% | 90 |
| CCCCCCCCCCCCCCCCCCCCCCCC(=O)NC(CO[C@H]1O[C@@H](CO)[C@H](O)[C@H](O)[C@@H]1O)[C@H](O)CCCCCCCCCCCCCCC (single isomer, unassigned) | 90 | 100% | 100 | 90% | 90 |
| CCCCCCCCCCCCCCC[C@@H](O)[C@H](CO[C@H]1O[C@@H](CO)[C@H](O)[C@H](O)[C@@H]1O)NC(=O)CCCCCCCCCCCCC (stereo in doubt; form 2) | 20 |  |  | 20% | 20 |
| CCCCCCCCCCCCCCC[C@@H](O)[C@H](CO[C@H]1O[C@@H](CO)[C@H](O)[C@H](O)[C@@H]1O)NC(=O)CCCCCCCCCCCCC (stereo in doubt; form 1) | 90 | 100% and 90% | 100 | 90% | 90 |
| CCCCCCCCCCCCCCCCCCCCCC[C@@H](O)C(=O)NC(CO[C@H]1O[C@@H](CO)[C@H](O)[C@H](O)[C@@H]1O)[C@H](O)CCCCCCCCCCCCCCC (single isomer, unassigned) | 90 | 100% | 100 | 90% | 90 |
